According to patent publication US20100273750A1, “SEROTONIN RECEPTOR ANTAGONISTS FOR TREATING ARTHRITIS” (IMPERIAL INNOVATIONS LIMITED, priority 2007, published 2010):
“Also recorded” adds a separate entry of the source. Counter-ions that a name gives are not always drawn.

Columns and labels:
[1] = test system: TLR7/8 ligand R-848 induced TNF; test: R-848 induced TNF production in primary human macrophages (ELISA)
[2] = test system: TLR3 ligand poly IC induced IP-10; test: Poly IC induced IP-10 production in human macrophages (ELISA); format: cell-based; details: 30 μg/ml, 20 μg/ml poly IC for 6 hours; hydrochloride
Protocol: (§1) Macrophages or RA synovial membrane cell cultures were stimulated with 10 ng/ml chloroform-extracted LPS, 10 ng/ml Pam3, 10 ng/ml Flagellin, 10 ng/ml Malp-2, 20 μg/ml poly IC, 2 μM CpG (human/mouse) or 1 μg/ml R-848 in complete media for 6 h. Supernatants from RA cultures were harvested after 24 hours. All reagents other than LPS were free from LPS contamination as assessed using the limulus amebocyte lysate (LAL) assay from Cambrex (USA).
(§2) Sandwich ELISAs were employed to measure TNF, (Pharmingen, UK). IP-10 (R&D, USA) and IL-1β (Bioscource. USA). Absorbance was read on a spectrophotometric ELISA plate reader (Labsystems Multiscan Biochromic) and analyzed using Ascent software V2.6 (Thermo Labsystems, Cambridge, United Kingdom). All results are expressed as the mean cytokine concentration±SD obtained from triplicate cultures per condition.
(§3) RA synovial membrane cells were isolated from patients undergoing joint replacement surgery as previously described (Foxwell et al., Proc. Natl. Acad. Sci. USA 95, 8211-8215, 1998). All patients gave written informed consent and the study was approved by the local ethics committee. Immediately after isolation, cells were used for mRNA analysis, stained by FACS or cultured at 1×10^5 cells/well in 96-well tissue culture plates (Falcon, UK) in RPMI 1640 containing 10% (v/v) FBS and 100 U/ml penicillin/streptomycin. Primary human synovial fibroblasts were cultured as described previously (Butler et al. Eur. Cytokine Netw. 5:441-8, 1994). Peripheral blood monocytes were isolated and cultured as previously described (Foxwell et al. Proc. Natl. Acad. Sci. USA 95, 8211-8215, 1998). Macrophages were derived from monocytes after differentiation for 4 days with 100 ng/ml M-CSF (PeproTech, UK). The mouse macrophage cell line RAW 264.7 was maintained in Dulbecco's modified Eagle's medium supplemented with 10% fetal bovine serum.
Primary human macrophages were incubated with 5 μg/ml of GBR12909, 5 μg/ml of clotrimazole, 5 μg/ml of Propidium iodide (PI), 30 μg/ml mianserine hydrochloride and 30 μg/ml promazine hydrochloride for 30 minutes and then stimulated for 6 hours with the TLR4 ligand LPS (FIG. 7A), with R848 a TLR7/8 ligand (FIG. 7, Graph B), or with poly IC a TLR3 ligand (FIG. 7C). Supernatants were collected and measured for TNF or IP-10.

[3] = test system: CIA model of rheumatoid arthritis; test: Murine CIA model of rheumatoid arthritis; format: in vivo, Male DBA mice
Protocol: Male DBA mice (8-10 weeks of age) were immunized at the base of the tail intradermally with 200 μg type II collagen emulsified in CFA (Difco Laboratories, West Molesey, U.K.). The onset of arthritis was considered to be the day that erythema and/or swelling were first observed, and arthritic mice were given a daily clinical score per limb from 0 to 3, with 0=normal, 1=slight erythema and swelling, 2=pronounced edematous swelling and 3=joint deformity with ankylosis, resulting in a maximum score of 12 per animal. Mianserine treatment started on the day of onset and was administered daily for 7 days. Paw swelling was assessed by measuring hind paw thickness using calipers.
The experiment was started at the onset of arthritis (day 1). Mice were given an interperitoneal injection of vehicle (PBS), 4 mg/kg or 10 mg/kg of mianserine hydrochloride once a day for 7 days. Mice were assessed for (FIG. 2A) clinical score and (FIG. 2B) paw swelling on a daily basis.

[4] = test system: TLR3 induced NF-κB activation; test: NF-κB luciferase reporter assay in synovial fibroblasts stimulated with poly IC; format: cell-based, human; details: 30 μg/ml, 30 minutes preincubation, 20 μg/ml Poly IC for 6 h, n=3
Protocol: (§4) Synovial fibroblasts were cultured in a 96-well plate, infected with recombinant adenovirus containing a NF-κB Luciferase reporter gene at a MOI of 200:1. The cells were allowed to rest for 24 h prior to stimulation. Cells were preincubated with 30 μg/ml mianserine hydrochloride for 30 minutes, then stimulated with 10 ng/ml LPS or 20 μg/ml Poly IC for 6 h. The cells were then washed once in PBS and lysed with 100 μl of CAT lysis buffer (0.65% (v/v) of Nonidet P-40, 10 mM Tris-HCl pH 8, 0.1 mM EDTA pH 8, 150 mM NaCl). 50 μl of cell lysate were mixed with 120 μl luciferase assay buffer (25 mM Tris-phosphate pH 7.8, 8 mM MgCl2, 1 mM EDTA, 1% (v/v) Triton X-100, 1% (v/v) glycerol, 1 mM DTT, 0.5 mM ATP) in the well of a luminometer cuvette strip. Luciferase activity was measured with a Luminometer (Thermo Labsystems, U.K.) by adding […] of luciferin (Bright-Glo luciferase assay system; Promega, Madison, Wis.) per assay point.
(§5) RA synovial membrane cells were isolated from patients undergoing joint replacement surgery as previously described (Foxwell et al., Proc. Natl. Acad. Sci. USA 95, 8211-8215, 1998). All patients gave written informed consent and the study was approved by the local ethics committee. […]

[5] = test system: TLR ligands Pam3, flagellin, Malp-2 induced TNF; test: Pam3, flagellin or Malp-2 induced TNF production in primary human macrophages (ELISA); format: cell-based; details: 30 μg/ml, 30 minutes preincubation
Protocol: as §1, §2
(§6) RA synovial membrane cells were isolated from patients undergoing joint replacement surgery as previously described (Foxwell et al., Proc. Natl. Acad. Sci. USA 95, 8211-8215, 1998). All patients gave written informed consent and the study was approved by the local ethics committee. Immediately after isolation, cells were used for mRNA analysis, stained by FACS or cultured at 1×10^5 cells/well in 96-well tissue culture plates (Falcon, UK) in RPMI 1640 containing 10% (v/v) FBS and 100 U/ml penicillin/streptomycin. […]

[6] = test system: TLR9 ligand CpG induced TNF; test: CpG induced TNF production in murine RAW 264.7 macrophages (ELISA); format: cell-based; details: 30 μg/ml, 30 minutes preincubation, CpG for 6 hours, RAW 264.7, n=2
Protocol: as §1, §2, §6

[7] = test system: RA synovial membrane cultures; test: Spontaneous cytokine release from RA synovial membrane cultures (ELISA); format: cell-based, human; details: 24 hours
[8] = test system: RA synovial membrane cultures; test: as above; format: cell-based, human
Protocol: as §1, with “hours.” for “hours. All reagents other than LPS were free from LPS contamination as assessed using the limulus amebocyte lysate (LAL) assay from Cambrex (USA).”
as §2, §3
Rheumatoid arthritis synovial membrane cells were cultured for 24 hours in the presence of media alone or media containing 30 μg/ml mianserine hydrochloride. Supernatants were harvested and levels of cytokines (A) TNF (n=16) were measured by ELISA. […] A students paired t-test was used to analyse the data.

[9] = test system: LPS induced NF-κB activation (TLR4); test: NF-κB luciferase reporter assay in synovial fibroblasts stimulated with LPS; format: cell-based, human; details: 30 μg/ml, 30 minutes preincubation, 10 ng/ml LPS for 6 h, n=3
Protocol: as §4, §5

[10] = test system: TLR4 ligand LPS induced TNF; test: LPS induced TNF production in primary human macrophages (ELISA); format: cell-based; details: 30 μg/ml, 30 minutes preincubation, 10 ng/ml LPS for 6 hours; hydrochloride
Protocol: as §1, §2, §3
Primary human macrophages, murine RAW 264.7 cells and synovial fibroblasts were incubated with 30 μg/ml mianserine hydrochloride for 30 minutes and then stimulated for 6 hours with TLR ligands (R-848, Pam3, LPS, flagellin, malp-2, poly IC or CpG).

[11] = 4 mg/kg interperitoneal once a day for 7 days
[12] = 10 mg/kg interperitoneal once a day for 7 days

## CN1CCN2c3ccccc3Cc3ccccc3C2C1 (stereo not shown) [mianserine hydrochloride]
[1]; 5 μg/ml with 0.3, 1, 10 or 20 μg/ml R-848, 6 hours
  inhibitory effect on TNF production at rising R-848: diminished with increasing concentrations of R-848
[1]; 30 μg/ml, 30 minutes preincubation, 1 μg/ml R-848 for 6 hours, hydrochloride
  inhibition of R-848 induced TNF production: decreased production of TNF; also recorded: able to suppress
[1]; 2.5, 5 or 10 μg/ml with 0.3, 1, 10 or 20 μg/ml R-848, 6 hours, three donors
  mode of inhibition of R-848 induced TNF production: competitively inhibits
[2]
  inhibition of Poly IC induced IP-10 production: inhibits TLR3 induced signalling; also recorded: able to inhibit
[3]; [11]
  clinical score: did not produce as great an effect as the 10 mg/kg group
  hind paw swelling: no significant improvement
  histology scoring: an improvement in the score
[3]; [12]
  hind paw swelling: significant improvement throughout the study
  histology scoring: significant effect
[3]; interperitoneal once a day for 7 days
  histology of hind paws: bone destruction and cell infiltration: clear reduction in both bone destruction and cell infiltration into the joint
[3]; interperitoneal once a day for 7 days from onset, statistics for 10 mg/kg group versus vehicle, n=7
  clinical score: significant improvement to the control group from day 3 onwards
[4]
  inhibition of TLR3 induced NF-κB activation: significantly inhibit
[5]; Malp-2 for 6 hours
  decreased production of TNF in response to Malp-2: not
[5]; flagellin for 6 hours
  decreased production of TNF in response to flagellin: not
[6]
  inhibition of CpG induced TNF production: able to inhibit TNF production
[7]; 20 μg/ml
  inhibition of spontaneous TNF production: able to inhibit
[7]
  decrease of TNF levels (positive control): able to decrease the TNF levels
[8]; 10 μg/ml, 20 μg/ml and 30 μg/ml
  inhibition of TNF, dose dependence: dose dependently inhibited
[8]; 30 μg/ml, 24 hours
  inhibition of spontaneous TNF production: able to inhibit
[8]; 30 μg/ml, 24 hours, n=16, p=0.0007
  decrease in the levels of TNF: 59%±13
[9]
  effect on LPS induced NF-κB activation: no effect
[10]
  inhibition of LPS induced TNF production: not and None of the drugs tested were able to inhibit
